Laboratory results published in ChEMBL document CHEMBL1154298, “Novel non-peptidic vinylsulfones targeting the S2 and S3 subsites of parasite cysteine proteases” (Bioorg Med Chem Lett, 2009).

Legend:
Jurkat = experiment: cells; details: Homo sapiens
Cruzipain = Cruzipain (Trypanosoma cruzi, UniProt P25779)
Rhodesain = Rhodesain (Trypanosoma brucei rhodesiense, UniProt Q95PM0)
[1] = target: Cruzipain (Trypanosoma cruzi) (UniProt P25779); experiment: Inhibition of Trypanosoma cruzi cruzain at 1 uM after 5 mins
[2] = target: T1, Cathepsin B-like cysteine protease (Trypanosoma brucei, UniProt Q6R7Z5)
T1 sequence (Q6R7Z5 whole entry): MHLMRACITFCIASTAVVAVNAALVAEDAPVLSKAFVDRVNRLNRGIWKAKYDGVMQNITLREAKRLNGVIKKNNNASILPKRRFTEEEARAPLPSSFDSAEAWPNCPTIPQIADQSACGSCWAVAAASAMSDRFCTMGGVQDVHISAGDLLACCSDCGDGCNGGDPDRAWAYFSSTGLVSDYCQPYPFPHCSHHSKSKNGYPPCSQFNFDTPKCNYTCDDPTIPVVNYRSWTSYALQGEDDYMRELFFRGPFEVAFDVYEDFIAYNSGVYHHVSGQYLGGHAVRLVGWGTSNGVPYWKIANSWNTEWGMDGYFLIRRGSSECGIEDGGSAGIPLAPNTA

[3] = target: Rhodesain (Trypanosoma brucei rhodesiense) (UniProt Q95PM0)
[4] = test system: Trypanosoma brucei brucei; experiment: microbe, parasite or virus in culture; details: Jurkat

Cruzipain (Trypanosoma cruzi), sequence (P25779 123-467 limits assumed): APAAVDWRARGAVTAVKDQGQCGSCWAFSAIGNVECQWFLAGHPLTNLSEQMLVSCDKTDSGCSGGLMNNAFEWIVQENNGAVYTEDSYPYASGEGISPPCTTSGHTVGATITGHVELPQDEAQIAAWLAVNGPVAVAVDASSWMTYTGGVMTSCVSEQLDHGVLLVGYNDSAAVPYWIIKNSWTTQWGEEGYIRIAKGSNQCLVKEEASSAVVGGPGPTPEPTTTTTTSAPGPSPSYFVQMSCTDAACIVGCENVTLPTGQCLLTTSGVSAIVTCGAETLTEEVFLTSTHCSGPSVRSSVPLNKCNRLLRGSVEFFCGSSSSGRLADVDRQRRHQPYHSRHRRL
Rhodesain, sequence (Q95PM0 whole entry): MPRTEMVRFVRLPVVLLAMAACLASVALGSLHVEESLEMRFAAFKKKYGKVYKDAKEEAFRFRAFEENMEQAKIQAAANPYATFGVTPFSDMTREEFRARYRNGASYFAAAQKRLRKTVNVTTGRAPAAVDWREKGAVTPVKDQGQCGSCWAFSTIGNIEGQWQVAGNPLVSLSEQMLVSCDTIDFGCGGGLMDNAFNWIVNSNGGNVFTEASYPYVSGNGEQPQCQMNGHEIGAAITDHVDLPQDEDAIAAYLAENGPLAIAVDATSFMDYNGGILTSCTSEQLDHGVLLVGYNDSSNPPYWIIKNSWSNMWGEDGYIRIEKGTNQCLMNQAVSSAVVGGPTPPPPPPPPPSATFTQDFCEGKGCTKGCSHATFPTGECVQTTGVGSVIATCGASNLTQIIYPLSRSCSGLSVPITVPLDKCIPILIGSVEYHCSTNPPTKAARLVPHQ
Rhodesain (Trypanosoma brucei rhodesiense), sequence (Q95PM0 1-450): as the sequence (Q95PM0 whole entry) above
Cruzipain, sequence (P25779 whole entry): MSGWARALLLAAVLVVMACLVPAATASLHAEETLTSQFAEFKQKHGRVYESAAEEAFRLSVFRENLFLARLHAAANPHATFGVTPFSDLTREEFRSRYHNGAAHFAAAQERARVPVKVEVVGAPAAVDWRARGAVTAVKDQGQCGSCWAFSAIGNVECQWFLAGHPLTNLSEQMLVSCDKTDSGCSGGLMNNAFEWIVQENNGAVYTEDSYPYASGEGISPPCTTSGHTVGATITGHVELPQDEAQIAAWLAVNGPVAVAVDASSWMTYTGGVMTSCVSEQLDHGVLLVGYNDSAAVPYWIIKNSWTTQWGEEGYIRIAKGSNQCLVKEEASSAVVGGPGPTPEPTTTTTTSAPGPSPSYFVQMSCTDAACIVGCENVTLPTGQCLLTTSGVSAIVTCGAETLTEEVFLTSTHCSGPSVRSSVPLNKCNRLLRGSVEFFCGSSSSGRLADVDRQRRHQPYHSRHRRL

For `O=C(N[C@H](/C=C/S(=O)(=O)c1ccccc1)CCc1ccccc1)c1cc(-c2ccncc2)no1`, which IC50 (Jurkat) is on record?
The IC50 was > 100 µM.

What about the IC50 (Cruzipain) of the same molecule?
The IC50 was 5 µM.

What about the IC50 (Rhodesain) of the same molecule?
The IC50 was 0.05 µM.

What about the Ki (Rhodesain) of the same molecule?
Its Ki is 16.2 µM.

And the inhibition [1]?
Its inhibition is < 5%.

And the IC50 [2]?
Its IC50 is > 100 µM.

What about the Kinact [3] of the same molecule?
Its Kinact is 0.0091 s⁻¹.

What about the GI50 [4] of the same molecule?
Its GI50 is 10 µM.

With `O=C(N[C@H](/C=C/S(=O)(=O)c1ccccc1)CCc1ccccc1)c1cc(-c2ccccn2)no1` as the molecule, how does the IC50 (Jurkat) read?
Its IC50 is > 100 µM.

And the IC50 (Cruzipain)?
Its IC50 is 6 µM.

And the IC50 (Rhodesain)?
Its IC50 is 0.05 µM.

And the Ki (Rhodesain)?
The Ki was 7.4 µM.

And the inhibition [1]?
Its inhibition is < 5%.

And the IC50 [2]?
Its IC50 is > 100 µM.

What about the Kinact [3] of the same molecule?
Its Kinact is 0.0038 s⁻¹.

And the GI50 [4]?
Its GI50 is 10 µM.

For `O=C(N[C@H](/C=C/S(=O)(=O)c1ccccc1)CCc1ccccc1)[C@H]1CCCC[C@@H]1C(=O)c1ccc(Cl)cc1`, which IC50 (Cruzipain) is on record?
The IC50 was > 100 µM.

And the IC50 (Rhodesain)?
Its IC50 is 56 µM.

And the Ki (Rhodesain)?
The Ki was 4.9 µM.

What about the IC50 [2] of the same molecule?
The IC50 was > 100 µM.

And the Kinact [3]?
Its Kinact is 0.0007 s⁻¹.

`Cc1onc(-c2ccc(F)cc2)c1C(=O)N[C@H](/C=C/S(=O)(=O)c1ccccc1)CCc1ccccc1` was tested. Which inhibition [1] did it give?
Its inhibition is 12.5%.

What does the source list for `O=C(N[C@H](/C=C/S(=O)(=O)c1ccccc1)CCc1ccccc1)c1cc(-c2ccccc2)no1`?
IC50 (Jurkat): > 100 µM; IC50 (Cruzipain): 2 µM; IC50 (Rhodesain): 0.01 µM; Ki (Rhodesain): 13 µM; IC50 [2]: 40 µM; Kinact [3]: 0.0031 s⁻¹; GI50 [4]: > 100 µM

Which results are given for `Cc1nc(-c2ccccc2)sc1C(=O)N[C@H](/C=C/S(=O)(=O)c1ccccc1)CCc1ccccc1`?
IC50 (Jurkat): > 100 µM; IC50 (Cruzipain): 10 µM; IC50 (Rhodesain): < 0.006 µM; Ki (Rhodesain): 0.32 µM; inhibition [1]: < 5%; IC50 [2]: > 100 µM; Kinact [3]: 0.0018 s⁻¹; GI50 [4]: > 100 µM

Which IC50 (Cruzipain) does the source give for `O=C(N[C@H](/C=C/S(=O)(=O)c1ccccc1)CCc1ccccc1)[C@@H]1CCCC[C@H]1C(=O)c1ccc(Cl)cc1` here?
Its IC50 is 0.05 µM.

And the IC50 (Rhodesain)?
Its IC50 is 0.1 µM.

And the Ki (Rhodesain)?
The Ki was 0.8 µM.

And the IC50 [2]?
The IC50 was 16 µM.

And the Kinact [3]?
Its Kinact is 0.00051 s⁻¹.

With `Cc1nc(-c2cccnc2)sc1C(=O)N[C@H](/C=C/S(=O)(=O)c1ccccc1)CCc1ccccc1` as the molecule, how does the IC50 (Jurkat) read?
The IC50 was 98 µM.

What about the IC50 (Cruzipain) of the same molecule?
Its IC50 is 2 µM.

And the IC50 (Rhodesain)?
The IC50 was 0.03 µM.

And the IC50 [2]?
Its IC50 is > 100 µM.

What about the GI50 [4] of the same molecule?
Its GI50 is 20 µM.

Which IC50 (Jurkat) does the source give for `O=C(N[C@H](/C=C/S(=O)(=O)c1ccccc1)CCc1ccccc1)c1cc(-c2cccnc2)no1` here?
Its IC50 is > 100 µM.

And the IC50 (Cruzipain)?
Its IC50 is 1 µM.

And the IC50 (Rhodesain)?
Its IC50 is 0.01 µM.

And the IC50 [2]?
Its IC50 is > 100 µM.

And the GI50 [4]?
Its GI50 is > 100 µM.

`CC(C)(C)c1cc(C(=O)N[C@H](/C=C/S(=O)(=O)c2ccccc2)CCc2ccccc2)n(Cc2ccccc2)n1` was tested. Which inhibition [1] did it give?
Its inhibition is 2%.

What does the source list for `CN1CCN(C(=O)N[C@@H](Cc2ccccc2)C(=O)N[C@H](/C=C/S(=O)(=O)c2ccccc2)CCc2ccccc2)CC1` [K-777]?
IC50 [2]: 4 µM; GI50 [4]: 7 µM

With `Cc1nc(-c2cnccn2)sc1C(=O)N[C@H](/C=C/S(=O)(=O)c1ccccc1)CCc1ccccc1` as the molecule, how does the IC50 (Jurkat) read?
Its IC50 is > 100 µM.

What about the IC50 (Cruzipain) of the same molecule?
Its IC50 is 1 µM.

And the IC50 (Rhodesain)?
Its IC50 is 0.01 µM.

And the Ki (Rhodesain)?
The Ki was 4.77 µM.

What about the IC50 [2] of the same molecule?
Its IC50 is > 100 µM.

What about the Kinact [3] of the same molecule?
The Kinact was 0.0079 s⁻¹.

What about the GI50 [4] of the same molecule?
The GI50 was 7 µM.

Which inhibition [1] does the source give for `O=C(N[C@H](/C=C/S(=O)(=O)c1ccccc1)CCc1ccccc1)c1ccccc1C(=O)c1ccc(Cl)cc1` here?
Its inhibition is 3%.
